Measurements taken from patent US20130156845A1, “LIPID FORMULATED SINGLE STRANDED RNA” (ALNYLAM PHARMACEUTICALS, INC., priority 2010, published 2013).
Read-outs that look alike come from different tables or passages of the source. Strand notation (5' to 3'): a small letter for the sugar, then the base; units joined by * are phosphorothioate-linked, units joined directly phosphodiester-linked; [ ] holds rarer units or linkages, { } end groups; capitals alone tell only the bases. [FEt-N] = nucleoside with 2'-OCH2CH2F (FEt) sugar (N: the base); [tcDNA-N] = tricyclo-DNA nucleoside (N: the base); [FEt] = thymidine with 2'-OCH2CH2F (FEt) sugar; e = 2'-O-(2-methoxyethyl) (MOE); m = 2'-O-methyl; r = 2'-OH (RNA); {P} = phosphate; f = 2'-fluoro

Assays:
[1] = Phosphate stability in mouse serum (Example 68)
Experimental: Single-stranded oligomeric compounds were tested for stability in mouse serum.

[2] = test system: PTEN; assay: PTEN mRNA reduction in HeLa cells, dose response (Example 72); type: cell-based, human; conditions: percent inhibition of PTEN mRNA, 0.167-50 nM
Experimental: In accordance with the present disclosure, oligomeric compounds were synthesized and tested for their ability to reduce PTEN expression over a range of doses. Human HeLa cells were treated with the following oligomeric compounds. A dose comparison was evaluated with dose concentrations of 0.167, 0.5, 1.5, 5, 15 and 50 nM using methods described herein. Expression levels of PTEN were determined using real-time PCR and normalized to RIBOGREEN™ using methods described herein. The percent inhibition of PTEN mRNA was determined and the resulting dose-response curves were used to determine the IC50. The IC50s are listed below.

[3] = test system: human PTEN; assay: PTEN expression in HeLa cells, ssRNAs vs siRNAs (Example 62); type: cell-based
Experimental: A series of 5′ and 2′ bis-substituted modified oligomeric compounds were prepared as single strand RNAs (ssRNAs). The antisense (AS) strands listed below were designed to target human PTEN, and each was also assayed as part of a duplex with the same sense strand (ISIS 341401, shown below) for their ability to reduce PTEN expression levels. HeLa cells were treated with the single stranded or double stranded oligomeric compounds created with the antisense compounds shown below using methods described herein. The IC50's were calculated using the linear regression equation generated by plotting the normalized mRNA levels to the log of the concentrations used.

[4] = full compound with intact phosphorous moiety, first table
[5] = antisense strand duplexed with sense strand ISIS 341401, PTEN mRNA, read-out: EC50 (nM) siRNA

5′-Po-ThUfoGfoUfoCfoUfoCfoUfoGfoGfoUfoCfoCfoUfsUfsAfsCfsUfsUfsAesAe (antisense TUGUCUCUGGUCCUUACUUAA; 5'-phosphate, 2'-F, MOE modifications, chemistry not fully specified) [ISIS 440141]
T1/2 full length ([1]; four compounds tested separately, second table): 0.3 h

5′-Po-TjUfoGfoUfoCfoUfoCfoUfoGfoGfoUfoCfoCfoUfsUfsAfsCfsUfsUfsAesAe (antisense {P}-[tcDNA-T]fUfGfUfCfUfCfUfGfGfUfCfCfU*fU*fA*fC*fU*fU*eA*eA) [ISIS 418130]
T1/2 full length [1, 4]: 5.3 h

5′-Po-UiUfoGfoUfoCfoUfoCfoUfoGfoGfoUfoCfoCfoUfsUfsAfsCfsUfsUfsAesAe (antisense UUGUCUCUGGUCCUUACUUAA; 5'-phosphate, N-methoxyamino BNA, 2'-F, MOE modifications, chemistry not fully specified) [ISIS 418129]
T1/2 full length [1, 4]: 5.4 h

5′-Ps-UdUfoGfoUfoCfoUfoCfoUfoGfoGfoUfoCfoCfoUfsUfsAfsCfsUfsUf (antisense UUGUCUCUGGUCCUUACUU; 5'-thiophosphate, 2'-F modifications, chemistry not fully specified) [ISIS 430601]
T1/2 full length [1, 4]: 3.7 h

P-TUfGfUfCfUfCfUfGfGfUfCfCfUfUfAfCfUfUfAeAe (antisense TUGUCUCUGGUCCUUACUUAA; 5'-phosphate, chemical modifications, chemistry not fully specified) [ISIS 418131, modified ssRNA targeting PTEN]
IC50 [2]: 3.4 nM

P-TdUfGfUfCfUfCfUfGfGfUfCfCfUfUfAfCfUfUfAeAe (antisense TUGUCUCUGGUCCUUACUUAA; chemistry not fully specified) [ISIS 435394, modified ssRNA targeting PTEN]
IC50 [2]: 18.1 nM

P-TdUfGmUfCmUfCmUfGmGfUmCfCfUfUfAfCfUfUfAeAe (antisense TUGUCUCUGGUCCUUACUUAA; 5'-phosphate, chemical modifications, chemistry not fully specified) [ISIS 435399, modified ssRNA targeting PTEN]
IC50 [2]: 2 nM

P-TeUfGfUfCfUfCfUfGfGfUfCfCfUfUfAfCfUfUfAeAe (antisense TUGUCUCUGGUCCUUACUUAA; sugars from the 5' end e1 f18 e2, 5' {P}, backbone not given here) [ISIS 418031, modified ssRNA targeting PTEN]
IC50 [2]: 3.9 nM

P-TefUfGfUfCfUfCfUfGfGfUfCfCfUfUfAfCfUfUfAeAe (antisense TUGUCUCUGGUCCUUACUUAA; sugars from the 5' end [FEt]1 f18 e2, 5' {P}, backbone not given here; further chemistry not fully specified) [ISIS 418032, modified ssRNA targeting PTEN]
IC50 [2]: 2.9 nM

P-TefUfGfUfCfUfCfUfGfGfUfCfCfUfUfAfCfUfUfAeAe (antisense {P}-[FEt-T]fUfGfUfCfUfCfUfGfGfUfCfCfU*fU*fA*fC*fU*fU*eA*eA) [ISIS 418033, modified ssRNA targeting PTEN]
IC50 [2]: 11 nM

P-UeUfGfUfCfUfCfUfGfGfUfCfCfUfUfAfCfUfUfAeAe (antisense UUGUCUCUGGUCCUUACUUAA; sugars from the 5' end e1 f18 e2, 5' {P}, backbone and T or U not given here) [ISIS 418030, modified ssRNA targeting PTEN]
IC50 [2]: 8.5 nM

P-UfUfGfUfCfUfCfUfGfGfUfCfCfUfUfAfCfUfUf (antisense {P}-fUfUfGfUfCfUfCfUfGfGfUfC*fC*fU*fU*fA*fC*fU*fU) [ISIS 386187, modified ssRNA targeting PTEN]
EC50 [3, 5]: 0.3 nM
EC50 ([3]; single stranded antisense compound, PTEN mRNA, read-out: EC50 (nM) ssRNA): 15 nM

P-UmUfGmUfCmUfCmUfGmGfUmCfCmUfUmAfCmUfUmAeAe (antisense UUGUCUCUGGUCCUUACUUAA; sugars from the 5' end mfmfmfmfmfmfmfmfmfmee, 5' {P}, backbone not given here) [ISIS 414291, modified ssRNA targeting PTEN]
IC50 ([2]; listed as 414291): 13 nM

P-UmUfGmUfCmUfCmUfGmGfUmCfCmUfUmAfCmUfUmAeAe (antisense UUGUCUCUGGUCCUUACUUAA; sugars from the 5' end mfmfmfmfmfmfmfmfmfmee, 5' {P}, backbone not given here) [ISIS 416598, modified ssRNA targeting PTEN]
IC50 ([2]; listed as 416598): 6.8 nM

Pz-^meUhUfGmUfCmUfCmUfGmGfUmCfCmUfUmAfCmUfUmAeAe (antisense UUGUCUCUGGUCCUUACUUAA; 5'-difluoromethylenephosphonate, 2'-F/2'-OMe alternating, MOE 3' end, first nucleoside modification undefined, further chemistry not given here) [ISIS 460646, modified ssRNA targeting PTEN, 5′-difluoromethylenephosphonate]
EC50 [3, 5]: 0.8 nM

Pz-^meUmUfGmUfCmUfCmUfGmGfUmCfCmUfUmAfCmUfUmAeAe (antisense UUGUCUCUGGUCCUUACUUAA; 5'-difluoromethylenephosphonate, 2'-F/2'-OMe alternating, MOE 3' end, first nucleoside modification undefined, further chemistry not given here) [ISIS 462606, modified ssRNA targeting PTEN, 5′-difluoromethylenephosphonate]
EC50 ([3]; antisense strand duplexed with sense strand ISIS 341401, PTEN mRNA, listed as 462606 (AS), read-out: EC50 (nM) siRNA): 0.4 nM

Pz-^meUmUfGmUfCmUfCmUfGmGfUmCfCmUfUmAfCmUfUmAeAe (antisense UUGUCUCUGGUCCUUACUUAA; 5'-difluoromethylenephosphonate, 2'-F/2'-OMe alternating, MOE 3' end, first nucleoside modification undefined, further chemistry not given here) [ISIS 462607, modified ssRNA targeting PTEN, 5′-difluoromethylenephosphonate]
EC50 ([3]; antisense strand duplexed with sense strand ISIS 341401, PTEN mRNA, listed as 462607 (AS), read-out: EC50 (nM) siRNA): 1 nM

UUGUCUCUGGUCCUUACUU (rUrUrGrUrCrUrCrUrGrGrUrC*rC*rU*rU*rA*rC*rU*rU) [ISIS 359455, unmodified RNA antisense strand targeting PTEN]
EC50 [3, 5]: 0.3 nM
